“And” between values parts separate entries of the source, which are not always exact repeats. Equal entries are not always repeated. Inconclusive results and toxic doses are left out. The calls were made as follows: active = survival T/C of 150% or more; inactive = T/C below 125% in these data.
System: BDF1 mice, intracerebral L1210 leukemia, survival T/C
Assay: NCI In Vivo Anticancer Drug Screen. Data for tumor model L1210 Leukemia (intracerebral) in B6D2F1 (BDF1) mice
Details: higher = longer survival
Summary of the method: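 Readout is the T/C ratio: survival of compound-treated animals over that of vehicle-treated controls, in mice bearing transplantable tumour.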

[1] = endpoint: mean survival time, dose: 25.0 mg/kg/injection, schedule: Q01DX001 (ip), vehicle: saline
[2] = endpoint: mean survival time, dose: 3.0 mg/kg/injection, schedule: Q01DX009 (ip), vehicle: saline
[3] = endpoint: mean survival time, dose: 5.0 mg/kg/injection, schedule: Q01DX009 (ip), vehicle: saline

Measured: T/C

O=NN(CCF)C(=O)NC1CSCSC1
active: endpoint: mean survival time, dose: 15.0 mg/kg/injection, schedule: Q01DX001 (ip), vehicle: other 163 % of control | endpoint: mean survival time, dose: 28.0 mg/kg/injection, schedule: Q01DX001 (ip), vehicle: other 176 % of control | endpoint: mean survival time, dose: 31.0 mg/kg/injection, schedule: Q01DX001 (ip), vehicle: other 177 % of control and 278 % of control | endpoint: mean survival time, dose: 41.0 mg/kg/injection, schedule: Q01DX001 (ip), vehicle: other 291 % of control | endpoint: mean survival time, dose: 62.0 mg/kg/injection, schedule: Q01DX001 (ip), vehicle: other 290 % of control and 337 % of control
inactive: endpoint: mean survival time, dose: 3.7 mg/kg/injection, schedule: Q01DX001 (ip), vehicle: other 111 % of control | endpoint: mean survival time, dose: 7.0 mg/kg/injection, schedule: Q01DX001 (ip), vehicle: other 120 % of control and 123 % of control

C=CC(CN1CC1)OC(C)=O (stereo not drawn)
inactive: endpoint: mean survival time, dose: 2.5 mg/kg/injection, schedule: Q01DX Z (ip), vehicle: saline 119 % of control | endpoint: mean survival time, dose: 11.0 mg/kg/injection, schedule: Q01DX001 (ip), vehicle: saline 113 % of control and 117 % of control | endpoint: mean survival time, dose: 17.0 mg/kg/injection, schedule: Q01DX001 (ip), vehicle: saline 117 % of control | [1] 119 % of control | endpoint: mean survival time, dose: 25.0 mg/kg/injection, schedule: Q01DX Z (ip), vehicle: saline 120 % of control | endpoint: mean survival time, dose: 30.0 mg/kg/injection, schedule: Q01DX Z (ip), vehicle: saline 105 % of control

O=NN(CCCl)C(=O)NC12CC3CC(CC(C3)C1)C2
inactive: endpoint: mean survival time, dose: 26.0 mg/kg/injection, schedule: Q01DX001 (ip), vehicle: carboxymethylcellulose (CMC) 108 % of control | endpoint: mean survival time, dose: 40.0 mg/kg/injection, schedule: Q01DX001 (ip), vehicle: carboxymethylcellulose (CMC) 112 % of control | endpoint: mean survival time, dose: 90.0 mg/kg/injection, schedule: Q01DX001 (ip), vehicle: carboxymethylcellulose (CMC) 120 % of control

CN(C)N=Nc1ccc(C(N)=O)cc1
inactive: endpoint: median survival time, dose: 10.0 mg/kg/injection, schedule: Q01DX009 (ip), vehicle: saline with Tween-80 98 % of control | endpoint: median survival time, dose: 20.0 mg/kg/injection, schedule: Q01DX009 (ip), vehicle: saline with Tween-80 107 % of control | endpoint: median survival time, dose: 40.0 mg/kg/injection, schedule: Q01DX009 (ip), vehicle: saline with Tween-80 109 % of control

COc1cccnc1/C=N/NC(N)=S
inactive: endpoint: median survival time, dose: 1.5 mg/kg/injection, schedule: Q01DX009 (ip), vehicle: saline with Tween-80 101 % of control | endpoint: median survival time, dose: 3.0 mg/kg/injection, schedule: Q01DX009 (ip), vehicle: saline with Tween-80 103 % of control | endpoint: median survival time, dose: 6.0 mg/kg/injection, schedule: Q01DX009 (ip), vehicle: saline with Tween-80 110 % of control
active: endpoint: median survival time, dose: 12.0 mg/kg/injection, schedule: Q01DX009 (ip), vehicle: saline with Tween-80 153 % of control

Cc1nc(N)nc(N)c1-c1ccc(Cl)c(Cl)c1
inactive: endpoint: mean survival time, dose: 1.08 mg/kg/injection, schedule: Q01DX009 (ip), vehicle: saline 105 % of control | endpoint: mean survival time, dose: 1.8 mg/kg/injection, schedule: Q01DX009 (ip), vehicle: saline 95 % of control | [2] 98 % of control | [3] 97 % of control | endpoint: mean survival time, dose: 8.4 mg/kg/injection, schedule: Q01DX009 (ip), vehicle: saline 111 % of control | endpoint: mean survival time, dose: 8.4 mg/kg/injection, schedule: Q04DX003 (ip), vehicle: saline 104 % of control | endpoint: mean survival time, dose: 14.0 mg/kg/injection, schedule: Q04DX003 (ip), vehicle: saline 96 % of control | endpoint: mean survival time, dose: 23.0 mg/kg/injection, schedule: Q04DX003 (ip), vehicle: saline 103 % of control | endpoint: mean survival time, dose: 39.0 mg/kg/injection, schedule: Q04DX003 (ip), vehicle: saline 93 % of control | endpoint: mean survival time, dose: 65.0 mg/kg/injection, schedule: Q04DX003 (ip), vehicle: saline 103 % of control | endpoint: median survival time, dose: 0.62 mg/kg/injection, schedule: Q01DX009 (ip), vehicle: saline 106 % of control | endpoint: median survival time, dose: 1.25 mg/kg/injection, schedule: Q01DX009 (ip), vehicle: saline 115 % of control | endpoint: median survival time, dose: 5.0 mg/kg/injection, schedule: Q01DX009 (ip), vehicle: saline 117 % of control | endpoint: median survival time, dose: 10.0 mg/kg/injection, schedule: Q01DX009 (ip), vehicle: saline 104 % of control

CN(N=O)C(=O)Nc1c[nH]c(=O)[nH]c1=O
inactive: endpoint: mean survival time, dose: 60.0 mg/kg/injection, schedule: Q01DX001 (ip), vehicle: saline 103 % of control | endpoint: mean survival time, dose: 120.0 mg/kg/injection, schedule: Q01DX001 (ip), vehicle: saline 104 % of control | endpoint: mean survival time, dose: 480.0 mg/kg/injection, schedule: Q01DX001 (ip), vehicle: saline 108 % of control | endpoint: mean survival time, dose: 960.0 mg/kg/injection, schedule: Q01DX001 (ip), vehicle: saline 86 % of control

CC(=O)OCC1OC(n2cnc3c(=S)nc(N)[nH]c32)C(OC(C)=O)C1OC(C)=O (stereo not drawn)
inactive: endpoint: mean survival time, dose: 37.5 mg/kg/injection, schedule: Q01DX Z (ip), vehicle: other 122 % of control

CNC1=C(N2CC2)C(=O)C(NC)=C(N2CC2)C1=O
inactive: endpoint: mean survival time, dose: 0.05 mg/kg/injection, schedule: Q01DX009 (ip), vehicle: saline 106 % of control | endpoint: mean survival time, dose: 0.1 mg/kg/injection, schedule: Q01DX009 (ip), vehicle: saline 111 % of control | endpoint: mean survival time, dose: 0.3 mg/kg/injection, schedule: Q01DX009 (ip), vehicle: saline 119 % of control | endpoint: mean survival time, dose: 0.4 mg/kg/injection, schedule: Q01DX009 (ip), vehicle: saline 103 % of control
active: endpoint: mean survival time, dose: 0.2 mg/kg/injection, schedule: Q01DX009 (ip), vehicle: saline 160 % of control | endpoint: mean survival time, dose: 0.6 mg/kg/injection, schedule: Q01DX009 (ip), vehicle: saline 160 % of control

COc1cc(NS(C)(=O)=O)ccc1Nc1c2cccc(C)c2nc2c(C)cccc12
inactive: endpoint: mean survival time, dose: 6.25 mg/kg/injection, schedule: Q01DX009 (ip), vehicle: water 111 % of control | endpoint: mean survival time, dose: 6.25 mg/kg/injection, schedule: Q01DX009 (sc), vehicle: water 98 % of control | endpoint: mean survival time, dose: 12.5 mg/kg/injection, schedule: Q01DX009 (sc), vehicle: water 101 % of control | [1] 101 % of control | endpoint: mean survival time, dose: 25.0 mg/kg/injection, schedule: Q01DX009 (ip), vehicle: water 114 % of control | endpoint: mean survival time, dose: 25.0 mg/kg/injection, schedule: Q01DX009 (sc), vehicle: water 103 % of control | endpoint: mean survival time, dose: 50.0 mg/kg/injection, schedule: Q01DX001 (ip), vehicle: saline 107 % of control | endpoint: mean survival time, dose: 50.0 mg/kg/injection, schedule: Q01DX009 (sc), vehicle: water 104 % of control | endpoint: mean survival time, dose: 100.0 mg/kg/injection, schedule: Q01DX001 (ip), vehicle: saline 110 % of control | endpoint: mean survival time, dose: 200.0 mg/kg/injection, schedule: Q01DX001 (ip), vehicle: saline 112 % of control

CC1CC(NC(=O)N(CCCl)N=O)CC(C)(C)C1 (stereo not drawn)
inactive: endpoint: mean survival time, dose: 375.0 mg/kg/injection, schedule: Q01DX001 (ip), vehicle: other 103 % of control | endpoint: mean survival time, dose: 500.0 mg/kg/injection, schedule: Q01DX001 (ip), vehicle: other 124 % of control | endpoint: mean survival time, dose: 750.0 mg/kg/injection, schedule: Q01DX001 (ip), vehicle: other 116 % of control

COc1cc(NS(C)(=O)=O)ccc1Nc1c2ccccc2nc2ccccc12
inactive: endpoint: mean survival time, dose: 0.5 mg/kg/injection, schedule: Q01DX009 (ip), vehicle: other 98 % of control | endpoint: mean survival time, dose: 0.75 mg/kg/injection, schedule: Q01DX009 (ip), vehicle: saline 100 % of control | endpoint: mean survival time, dose: 0.75 mg/kg/injection, schedule: Q01DX009 (sc), vehicle: saline 101 % of control | endpoint: mean survival time, dose: 1.0 mg/kg/injection, schedule: Q01DX009 (ip), vehicle: other 92 % of control | endpoint: mean survival time, dose: 1.25 mg/kg/injection, schedule: Q01DX009 (ip), vehicle: saline 97 % of control | endpoint: mean survival time, dose: 1.25 mg/kg/injection, schedule: Q01DX009 (sc), vehicle: saline 94 % of control | endpoint: mean survival time, dose: 1.5 mg/kg/injection, schedule: Q01DX009 (ip), vehicle: saline 100 % of control | endpoint: mean survival time, dose: 1.5 mg/kg/injection, schedule: Q01DX009 (sc), vehicle: saline 93 % of control | endpoint: mean survival time, dose: 1.8 mg/kg/injection, schedule: Q01DX009 (ip), vehicle: water 92 % of control | endpoint: mean survival time, dose: 2.0 mg/kg/injection, schedule: Q01DX009 (ip), vehicle: other 105 % of control | endpoint: mean survival time, dose: 2.5 mg/kg/injection, schedule: Q01DX009 (ip), vehicle: saline 108 % of control and 97 % of control | endpoint: mean survival time, dose: 2.5 mg/kg/injection, schedule: Q01DX009 (sc), vehicle: saline 98 % of control and 95 % of control | [2] 102 % of control | endpoint: mean survival time, dose: 3.0 mg/kg/injection, schedule: Q01DX009 (ip), vehicle: water 88 % of control | endpoint: mean survival time, dose: 3.0 mg/kg/injection, schedule: Q01DX009 (sc), vehicle: saline 92 % of control | [3] 121 % of control and 108 % of control | endpoint: mean survival time, dose: 5.0 mg/kg/injection, schedule: Q01DX009 (sc), vehicle: saline 101 % of control and 93 % of control | endpoint: mean survival time, dose: 6.0 mg/kg/injection, schedule: Q01DX009 (ip), vehicle: saline 104 % of control | endpoint: mean survival time, dose: 6.0 mg/kg/injection, schedule: Q01DX009 (sc), vehicle: saline 96 % of control | endpoint: mean survival time, dose: 10.0 mg/kg/injection, schedule: Q01DX009 (ip), vehicle: saline 111 % of control | endpoint: mean survival time, dose: 10.0 mg/kg/injection, schedule: Q01DX009 (sc), vehicle: saline 100 % of control and 98 % of control | endpoint: mean survival time, dose: 20.0 mg/kg/injection, schedule: Q01DX009 (sc), vehicle: saline 109 % of control

— PubChem BioAssay AID252 (DTP/NCI, 2004)
